In patent US6383528B1 (Yuyu International Co., Ltd., priority 1997, dated 2002):

Assays:
[1] = tested on: mouse acute thrombus model; test: Recovery rate in the mouse acute thrombus model (collagen + epinephrine); assay type: in vivo; conditions: for Recovered Mouse, Number of Mouse: recovery within 15 minutes
Experimental: An Increase in Recovery Rate in the Mouse Acute Thrombus Model
One hour after the final administration of the regimen, the mixed solution containing collagen and epinephrine (collagen 1100 μg+epinephrine 110 μg/10 ml of saline solution/kg) was injected into the vein in the tail. The status of paralysis or death from pulmonary infarction, and the recovery therefrom were duly recorded.
As in the experiment above if the mixed solution comprising collagen and epinephrine was infected into the vein a large of amount of thrombus was generated shortly thereafter with the result of an occlusion in the pulmonary artery. Within one minute after the injection, almost every part of the body was in paralysis with the enlargement of a pupil. Dyspnea occurred followed by a seizure. Within 5 minutes, approximately 70˜80% of the mouse were deceased. As to the remainder, almost every mouse were dead within 15 minutes or in a continued paralysis.

[2] = tested on: thrombus formation at the cotton thread in the A-V Shunt; test: Thrombus formation by arterio-venous shunt (A-V Shunt); assay type: in vivo; conditions: female rats; for Thrombus Dry Condition Suppression Rate (%) / Thrombus Wet Condition Suppression Rate (%): vs control rats
Experimental: Thrombus Formation by Arterio-Venous Shunt (A-V Shunt hereinafter) and the Effects on the Platelet Aggregation […] Thereafter, Table 7 was tabulated with the measured weights of the thrombus formation at the cotton thread in the A-V Shunt. At this point, the weights of thrombus were measured in terms of the wet weight immediately after the experiment, and dry weight after complete drying.

[3] = tested on: platelet aggregation induced by ADP 3×10^−5M in PRP; test: Ex vivo platelet aggregation in rats with A-V Shunt; conditions: for Aggregation Rate (%) 2 Minutes / Aggregation Rate (%) 3 Minutes / Aggregation Rate (%) Maximum: control maximum set at 100
Experimental: The Effect on Platelet Aggregation in the A-V Shunt of Rats
After the administration of the same regimens used in Experiment 3 for the duration of 9 days, the weights of thrombus formations at the A-V Shunt were measured as the sample of the blood therefrom was collected for the purposes of studying the effect on the ex vivo platelet aggregation after the AV-Shunt. In particular, to the PRP (supernatant after the centrifuge of the blood sample for 10 minutes at 200×g) prepared from the respective blood sample, ADP 3×10^−5M, which is the platelets aggregation inducer, were added for the purposes of inducing aggregation.
In order to study the ex vivo platelet aggregation effect of the rats' blood without A-V Shunt, the concentration of ADP lower than 1×10^−5M was used. With the maximum platelet aggregation rate of rats in the control group with A-V Shunt set at 100, various aggregation rates were compared.

female rats = test: Prolongation of the bleeding time (tail incision); assay type: in vivo; conditions: for Bleeding Time: female rats
Experimental: Prolongation of the Bleeding Time
One hour after the final administration of the regimen, 250 mg/kg of ketamine was injected into muscle tissue for anesthesia. 2 mm from the tail end was incised with the razor blade, after which the blood therefrom was blotted with the filter paper at the interval of 5 second to the point of the hemorrhage stoppage.

leukocytes in rat [4] = test: Leukocyte number and differential ratios after 16 weeks of administration; assay type: in vivo; conditions: rats
Experimental: Bellefonte, Pa.). […] The changes due to the dosage amount and blending ratio were set as follows. […] On the other hand, one tablet of the Ginkgo biloba extract is 40 mg, 80 mg, 120 mg with a daily dosage of 120 mg to 240 mg. […] [table] […] After anesthesia, blood was collected through the abdominal aorta, and the number of white blood cells were counted using the Coulter Counter. Using the cytochemical dyeing method, the ratios of neutrophil, eosinophil, basophil, macrophage and lymphocytes were measured.

leukocytes in rat [5] = test: Leukocyte number and differential ratios after 16 weeks of administration and 2 weeks of withdrawal; assay type: in vivo; conditions: rats
Experimental: Rats were administered with the same regimens as in Experiment 6 for the duration of 16 weeks, and those with two weeks of withdrawal were separately maintained.

femur marrow cells [6] = test: Number of bone marrow cells after 16 weeks of administration; assay type: in vivo; conditions: rats, ticlopidine vs control, combinations vs ticlopidine alone
Experimental: A Change in the Number of Bone Marrow Cells after the Administration of the Pharmaceutical Composition for the Duration of 16 Weeks. […] Thereafter, the number of bone marrow cells was measured. In detail, for the purposes of measuring the numbers of the precursor cells of leukocytes, the femur part was incised with the elimination of the surrounding muscle tissues. Then, both sides of epiphysis were incised, from which approximately 2 cm of femur was obtained. […] After removing the supernatant, 1 ml of saline solution was added to the precipitated cell layer. […] Then, removing the supernatant once again, 0.5 ml of saline solution was added to the precipitated cell layer and mixed. The drop therefrom was added to the Cytometer, and the number of cells in the RRRRR 5 part (4 corners and the center) was counted. Using the following formula, the number of marrow cells were calculated: Counted Number×50×10×10^3=Number of white blood cell precursor/femur.

femur marrow cells [7] = test: Number of bone marrow cells after 16 weeks of administration and 2 weeks of withdrawal; assay type: in vivo; conditions: rats, 16 weeks then 2 weeks of withdrawal; combination 5:2
Experimental: The Changes in the Number of the Bone Marrow Cells after 16 Weeks of the Administration of the Pharmaceutical Composition, Followed by 2 Weeks of Withdrawal
Thereafter, the number of bone marrow cells at femur was measured.

femur marrow cells [8] = test: Histological examination of the marrow cells after 16 weeks; assay type: in vivo; conditions: rats, femur marrow histology ×400
Excerpt: Histological Examination of the Marrow Cells after the Administration of the Pharmaceutical Composition for 16 Weeks […] Thereafter, the marrow cells was histologically examined. […] The femur so extracted was decalcified with the decalcification solution and embedded with paraffin after the ordinary course of the histological process. The femur tissue so embedded with paraffin was sliced at a thickness of 4 μm, followed by hematoxylin and eosins. Thereafter, the slide was examined with the light microscope at 400×.

femur marrow cells [9] = test: Histological examination of the marrow cells after 16 weeks and 2 weeks of withdrawal; assay type: in vivo; conditions: rats, 16 weeks then 2 weeks of withdrawal, femur marrow histology
Excerpt: Histological Examination of the Marrow Cells after the Administration of the Pharmaceutical Composition for 16 Weeks, Followed by 2 Weeks of Withdrawal
Thereafter, the marrow cells were histolosically examined.

[10] = patients, first 3 months of treatment; cited from earlier work
[11] = tested on: platelet aggregation induced by 1×10^−5 M ADP; test: Ex vivo platelet aggregation suppression effect; conditions: female rats, ADP 1×10^−5 M
Excerpt: Ex Vivo Platelet Aggregation Suppression Effect
One hour after the final administration on the specimen, the rats were anesthetized. For preventing blood coagulation, the blood sample was collected using a syringe with the anti-coagulant, 3.8% Sodium Citrate solution. Thereafter, the effects oil the platelet aggregation induced by 1×10^−5 M ADP were studied.

[12] = 50 mg/kg/day for 9 days, 50 mg/kg/day
[13] = 50 mg/kg/day for 9 days, listed as Ticlopidine (T), 50 mg/kg/day
[14] = 100 mg/kg/day for 9 days, 100 mg/kg/day
[15] = 100 mg/kg/day for 9 days, listed as Ticlopidine (T), 100 mg/kg/day
[16] = 50 mg/kg/day for 9 days, listed as Ticlopidine (T)
[17] = 100 mg/kg/day for 9 days, listed as Ticlopidine (T)
[18] = 16 weeks P.O., ticlopidine 300 mg/kg/day alone or + Ginkgo extract 60/120/240 mg/kg/day, mean ± S.E.
[19] = 16 weeks P.O. then 2 weeks of withdrawal, 300 or 300 + 120 mg/kg/day, mean ± S.E.

Which results are given for `Clc1ccccc1CN1CCc2sccc2C1` [Ticlopidine, 5-[(2-chlorophenyl)methyl]-4,5,6,7-tetrahydrothieno[3,2-C]pyridine]?
Recovered Mouse, % ([1]; 50 mg/kg/day for 3 days): 38%; Recovered Mouse, Number of Mouse ([1]; 50 mg/kg/day for 3 days): 6; Recovered Mouse, % ([1]; 100 mg/kg/day for 3 days): 47%; Recovered Mouse, Number of Mouse ([1]; 100 mg/kg/day for 3 days): 7; Thrombus Dry Condition Weight ([2]; 50 mg/kg/day for 9 days): 9.53 mg; Thrombus Wet Condition Weight ([2]; 50 mg/kg/day for 9 days): 35.03 mg; Thrombus Dry Condition Suppression Rate (%) [2, 12]: 25%; Thrombus Wet Condition Suppression Rate (%) [2, 12]: 26%; Thrombus Dry Condition Suppression Rate (%) [2, 13]: 25 ± 21%; Thrombus Wet Condition Suppression Rate (%) [2, 13]: 26 ± 19%; Thrombus Dry Condition Weight ([2]; 100 mg/kg/day for 9 days): 8.78 mg; Thrombus Wet Condition Weight ([2]; 100 mg/kg/day for 9 days): 30.45 mg; Thrombus Dry Condition Suppression Rate (%) [2, 14]: 31%; Thrombus Wet Condition Suppression Rate (%) [2, 14]: 36%; Thrombus Dry Condition Suppression Rate (%) [2, 15]: 31 ± 12%; Thrombus Wet Condition Suppression Rate (%) [2, 15]: 36 ±10%; Time (Minute) Maximum (time to maximum aggregation) ([3]; 50 mg/kg/day for 9 days): 1.8 min; Time (Minute) Total (complete de-aggregation) ([3]; 50 mg/kg/day for 9 days): 4.33 min; Aggregation Rate (%) 2 Minutes ([3]; 50 mg/kg/day for 9 days): 74%; Aggregation Rate (%) 3 Minutes ([3]; 50 mg/kg/day for 9 days): 45%; Aggregation Rate (%) Maximum ([3]; 50 mg/kg/day for 9 days): 78%; Aggregation Rate (%) 2 Minutes [3, 16]: 74.4%; Aggregation Rate (%) 3 Minutes [3, 16]: 45.8%; Aggregation Rate (%) Maximum [3, 16]: 78.2%; Time (Minute) Maximum (time to maximum aggregation) ([3]; 100 mg/kg/day for 9 days): 1.5 min; Time (Minute) Total (complete de-aggregation) ([3]; 100 mg/kg/day for 9 days): 3.4 min; Aggregation Rate (%) 2 Minutes ([3]; 100 mg/kg/day for 9 days): 62%; Aggregation Rate (%) 3 Minutes ([3]; 100 mg/kg/day for 9 days): 21%; Aggregation Rate (%) Maximum ([3]; 100 mg/kg/day for 9 days): 72%; Aggregation Rate (%) 2 Minutes [3, 17]: 62.9%; Aggregation Rate (%) 3 Minutes [3, 17]: 21.4%; Aggregation Rate (%) Maximum [3, 17]: 72.6%; bleeding time increase from that in the control group (female rats; 50 mg/kg): 1.5 times; bleeding time increase from that in the control group (female rats; 100 mg/kg): 2 times; Bleeding Time (female rats; 50 mg/kg/day for 5 days): 1546 ± 332 s; Bleeding Time (female rats; 100 mg/kg/day for 5 days): 2023 ± 872 s; eosinophil, basophil, macrophage or lymphocyte compared with the control group (leukocytes in rat [4]; 16 weeks): not significant differences; white blood cells in the blood compared with the control group (leukocytes in rat [4]; 16 weeks): slight tendency of a decrease; Total Leukocyte (×10^3/μl) (leukocytes in rat [4]; 16 weeks P.O. in drinking water, ticlopidine 300 mg/kg/day alone or + Ginkgo extract 60 (5:1), 120 (5:2), 240 (5:4) mg/kg/day, mean ± S.E.): 9.3 ± 1.3 ×10^3/μl; Basophil (%) (leukocytes in rat [4]; [18]): 1.7 ± 0.2%; Eosinophil (%) (leukocytes in rat [4]; [18]): 2.0 ± 0.4%; Lymphocyte (%) (leukocytes in rat [4]; [18]): 80.4 ± 1.6%; Macrophage (%) (leukocytes in rat [4]; [18]): 5.5 ± 0.8%; Neutrophil (%) (leukocytes in rat [4]; [18]): 10.5 ± 1.1 %; Neutrophil (%) (leukocytes in rat [4]; 16 weeks P.O., ticlopidine 300 mg/kg/day alone or + Ginkgo extract 60/120/240 mg/kg/day, mean ± S.E., listed as ticlopidine): 10.5±1.1%; Basophil (%) (leukocytes in rat [5]; [19]): 0.3 ± 0.1%; Eosinophil (%) (leukocytes in rat [5]; [19]): 2.7 ± 0.2%; Lymphocyt (%) (leukocytes in rat [5]; [19]): 77.8 ± 0.5%; Macrophage (%) (leukocytes in rat [5]; [19]): 3.5 ± 1.0%; Neutrophil (%) (leukocytes in rat [5]; [19]): 15.9 ± 1.7 %; Total Leukocyte (×10^3/μl) (leukocytes in rat [5]; 16 weeks P.O. then 2 weeks of withdrawal, ticlopidine 300 mg/kg/day alone or + Ginkgo extract 120 mg/kg/day (5:2), mean ± S.E.): 10.3 ± 1.2 ×10^3/μl; number of neutrophil / leukocytes after withdrawal compared with the control group (leukocytes in rat [5]; 16 weeks then 2 weeks of withdrawal): normal recovery; number of white blood cell precursor at marrow (femur marrow cells, FIG. 1), words (femur marrow cells [6]): significant reduction; number of marrow cells at femur (FIG. 2), words (femur marrow cells [7]): recovered to the normal level; Band-granulocyte (femur marrow cells [8]): no change; Cellularity (density of the marrow cells) (femur marrow cells [8]): malignant vacuolation; Megakaryocyte (femur marrow cells [8]): decreased; Myelocyte (femur marrow cells [8]): significantly decreased; Megakaryocyte (femur marrow cells [9]): increased almost to the point of the control group; incidence rate of toxicity (neutropenia, agranulocytosis) [10]: 0.8%; Suppression Rate (%) (Avg + SD) ([11]; 100 mg/kg/day for 3 days, 100 mg/kg/day): 67%; Suppression Rate (%) (Avg + SD) ([11]; 100 mg/kg/day for 3 days, listed as Ticlopidine (T), 100 mg/kg/day): 67.06 ± 16.25 %; Suppression Rate (%) (Avg + SD) ([11]; 200 mg/kg/day for 3 days, 200 mg/kg/day): 98%; Suppression Rate (%) (Avg + SD) ([11]; 200 mg/kg/day for 3 days, listed as Ticlopidine (T), 200 mg/kg/day): 97.97 ± 4.53 %
